# Data: ChEMBL document CHEMBL1201862, “PubChem BioAssay data set” (2004)
# Active and inactive are the calls of the source.
# What was measured:
# [1] = target: UDP-galactopyranose mutase (Mycobacterium tuberculosis, UniProt P9WIQ1); experiment: Inhibitors of Mycobacterium tuberculosis UDP-galactopyranose mutase (UGM) enzyme Measured in Biochemical System Using Plate Reader - 2105-02_Inhibitor_Dose_CherryPick_Activity. [Related pubchem assays (depositor defined):AID504439]
# Cytochrome P450 2D6 [2] = target: T1, Cytochrome P450 2D6 (Homo sapiens, UniProt P10635);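 note: CYP2D6 member of a cytochrome P450 panel assay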
# T1 sequence (P10635 whole entry): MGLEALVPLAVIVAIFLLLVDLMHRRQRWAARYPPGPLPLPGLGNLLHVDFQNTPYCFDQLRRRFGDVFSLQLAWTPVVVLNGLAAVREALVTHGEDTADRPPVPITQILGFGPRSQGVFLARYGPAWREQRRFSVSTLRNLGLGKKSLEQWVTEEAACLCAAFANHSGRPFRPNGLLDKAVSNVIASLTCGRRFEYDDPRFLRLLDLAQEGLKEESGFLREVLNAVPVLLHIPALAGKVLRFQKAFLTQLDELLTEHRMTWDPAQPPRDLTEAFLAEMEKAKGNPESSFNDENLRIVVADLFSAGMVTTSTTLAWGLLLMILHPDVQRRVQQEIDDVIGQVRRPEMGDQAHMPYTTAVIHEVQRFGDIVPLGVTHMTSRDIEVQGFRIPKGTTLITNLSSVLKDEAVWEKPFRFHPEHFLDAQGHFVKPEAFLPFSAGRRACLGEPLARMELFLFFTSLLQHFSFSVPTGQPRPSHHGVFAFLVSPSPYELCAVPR
# Cytochrome P450 2C19 = Cytochrome P450 2C19 (Homo sapiens, UniProt P33261); experiment: Cytochrome panel assay with activity outcomes. Panel member name: p450-cyp2c19 Compounds with AC50 equal or less than 10 uM are considered active; format: functional; settings: read-out: AC50
# Sequence of Cytochrome P450 2C19 (P33261 whole entry): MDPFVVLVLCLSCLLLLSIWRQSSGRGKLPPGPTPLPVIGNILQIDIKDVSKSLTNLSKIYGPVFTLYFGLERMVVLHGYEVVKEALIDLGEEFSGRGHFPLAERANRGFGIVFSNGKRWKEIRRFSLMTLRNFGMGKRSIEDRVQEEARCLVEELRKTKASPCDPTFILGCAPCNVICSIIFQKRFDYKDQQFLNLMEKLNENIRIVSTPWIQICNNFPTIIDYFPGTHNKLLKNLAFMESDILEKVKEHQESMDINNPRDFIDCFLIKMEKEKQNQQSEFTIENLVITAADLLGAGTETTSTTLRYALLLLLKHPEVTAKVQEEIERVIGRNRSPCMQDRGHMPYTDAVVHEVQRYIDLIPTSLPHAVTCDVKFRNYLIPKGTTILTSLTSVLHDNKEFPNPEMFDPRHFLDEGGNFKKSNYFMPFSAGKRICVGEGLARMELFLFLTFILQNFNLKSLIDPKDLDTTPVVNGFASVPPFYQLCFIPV
# Cytochrome P450 3A4 [3] = target: T2, Cytochrome P450 3A4 (Homo sapiens, UniProt P08684);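 note: CYP3A4 tested as one member of a cytochrome P450 panel screen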
# T2 sequence (P08684 whole entry): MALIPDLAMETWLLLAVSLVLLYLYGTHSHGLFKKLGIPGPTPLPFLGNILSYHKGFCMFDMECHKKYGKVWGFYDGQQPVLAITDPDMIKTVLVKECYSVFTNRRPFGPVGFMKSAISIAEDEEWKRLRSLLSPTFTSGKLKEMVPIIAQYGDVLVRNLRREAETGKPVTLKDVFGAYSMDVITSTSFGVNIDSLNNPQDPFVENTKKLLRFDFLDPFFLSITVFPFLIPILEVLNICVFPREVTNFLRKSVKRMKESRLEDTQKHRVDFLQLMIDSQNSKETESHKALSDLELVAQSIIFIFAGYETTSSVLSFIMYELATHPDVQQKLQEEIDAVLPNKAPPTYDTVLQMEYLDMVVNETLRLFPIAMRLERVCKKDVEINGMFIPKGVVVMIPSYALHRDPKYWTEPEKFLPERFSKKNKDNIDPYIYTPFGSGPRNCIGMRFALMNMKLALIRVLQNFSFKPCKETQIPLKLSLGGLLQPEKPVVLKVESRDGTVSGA
# Cytochrome P450 1A2 = target: T3, Cytochrome P450 1A2 (Homo sapiens, UniProt P05177);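 note: PubChem cytochrome P450 panel assay, CYP1A2 panel member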
# T3 sequence (P05177 whole entry): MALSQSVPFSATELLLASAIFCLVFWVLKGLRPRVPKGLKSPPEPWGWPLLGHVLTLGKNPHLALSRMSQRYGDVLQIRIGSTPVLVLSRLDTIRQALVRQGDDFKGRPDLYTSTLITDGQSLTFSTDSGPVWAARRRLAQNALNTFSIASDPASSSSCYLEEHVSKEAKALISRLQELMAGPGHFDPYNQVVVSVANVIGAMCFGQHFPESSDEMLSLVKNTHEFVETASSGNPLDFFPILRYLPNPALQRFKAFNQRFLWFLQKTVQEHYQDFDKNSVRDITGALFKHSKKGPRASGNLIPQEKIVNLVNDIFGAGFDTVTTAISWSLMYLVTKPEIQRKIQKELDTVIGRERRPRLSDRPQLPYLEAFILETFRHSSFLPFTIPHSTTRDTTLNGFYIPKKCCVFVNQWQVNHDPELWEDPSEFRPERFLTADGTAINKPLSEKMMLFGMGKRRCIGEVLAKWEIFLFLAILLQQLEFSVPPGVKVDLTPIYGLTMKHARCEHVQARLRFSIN
# Bcl-2-like protein 1 = Bcl-2-like protein 1 (Homo sapiens, UniProt Q07817); experiment: BCL-XL inhibitors, dose response, selectivity assay for MCL1 inhibitor project, biochemical, fluorescence polarization, 1536-well (AID 2218)
# Sequence of Bcl-2-like protein 1 (Q07817 whole entry): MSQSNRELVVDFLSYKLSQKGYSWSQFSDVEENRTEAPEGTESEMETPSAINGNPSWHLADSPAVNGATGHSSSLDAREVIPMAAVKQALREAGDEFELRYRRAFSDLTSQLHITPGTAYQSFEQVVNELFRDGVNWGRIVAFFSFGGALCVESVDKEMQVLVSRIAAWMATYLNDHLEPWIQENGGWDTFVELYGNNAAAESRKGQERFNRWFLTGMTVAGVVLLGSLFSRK
# Bcl-2-like protein 10 = target: T4, Bcl-2-like protein 10 (Homo sapiens, UniProt Q9HD36); experiment: displacers of TR3 peptide from Bcl-B, primary screen, selectivity assay for Bfl-1 inhibitor project, biochemical, fluorescence polarization, FITC-TR3 peptide (AID 748);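 note: fluorescence polarization from a fluorescein-labelled TR3 peptide binding purified Bcl-B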
# T4 sequence (Q9HD36 whole entry): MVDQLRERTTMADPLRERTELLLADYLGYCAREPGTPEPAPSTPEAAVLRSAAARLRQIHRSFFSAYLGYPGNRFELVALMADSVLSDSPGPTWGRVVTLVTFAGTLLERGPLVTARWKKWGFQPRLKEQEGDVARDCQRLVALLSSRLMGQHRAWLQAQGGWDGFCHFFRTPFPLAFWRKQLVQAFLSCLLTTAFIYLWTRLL
# [4] = target: T5, Dual specificity protein phosphatase 6 (Rattus norvegicus, UniProt Q64346); format: functional
# T5 sequence (Q64346 whole entry): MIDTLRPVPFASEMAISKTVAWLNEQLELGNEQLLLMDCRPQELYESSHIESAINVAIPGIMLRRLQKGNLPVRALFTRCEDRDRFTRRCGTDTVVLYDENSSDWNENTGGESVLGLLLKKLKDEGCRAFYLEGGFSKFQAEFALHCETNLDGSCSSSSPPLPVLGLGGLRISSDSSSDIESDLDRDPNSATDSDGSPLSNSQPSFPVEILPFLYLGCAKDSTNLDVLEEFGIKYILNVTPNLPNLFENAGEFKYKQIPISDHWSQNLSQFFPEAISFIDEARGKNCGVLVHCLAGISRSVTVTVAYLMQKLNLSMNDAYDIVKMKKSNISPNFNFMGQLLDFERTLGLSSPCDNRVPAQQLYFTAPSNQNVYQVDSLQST
# [5] = target: T5, Dual specificity protein phosphatase 6; experiment: MKP-3 phosphatase inhibitors, primary screen, biochemical, rat enzyme, in vitro (AID 425)
# [6] = target: Glyceraldehyde-3-phosphate dehydrogenase (Homo sapiens, UniProt P04406)
# Sequence of Glyceraldehyde-3-phosphate dehydrogenase (P04406 whole entry): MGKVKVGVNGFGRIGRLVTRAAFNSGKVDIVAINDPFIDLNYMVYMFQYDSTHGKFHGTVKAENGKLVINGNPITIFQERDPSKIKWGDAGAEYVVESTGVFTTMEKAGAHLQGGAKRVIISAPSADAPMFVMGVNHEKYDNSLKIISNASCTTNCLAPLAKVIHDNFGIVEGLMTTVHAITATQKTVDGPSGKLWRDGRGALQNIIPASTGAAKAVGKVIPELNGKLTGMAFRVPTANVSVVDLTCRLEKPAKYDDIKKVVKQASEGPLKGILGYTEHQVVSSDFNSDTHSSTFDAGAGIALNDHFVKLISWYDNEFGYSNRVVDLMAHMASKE
# [7] = target: Induced myeloid leukemia cell differentiation protein Mcl-1 (Homo sapiens, UniProt Q07820); experiment: MCL1-BIM BH3 interaction inhibitors, dose response, biochemical, fluorescence polarization, BIM-BH3 peptide, 1536-well (AID 2217)
# Sequence of Induced myeloid leukemia cell differentiation protein Mcl-1 (Q07820 whole entry): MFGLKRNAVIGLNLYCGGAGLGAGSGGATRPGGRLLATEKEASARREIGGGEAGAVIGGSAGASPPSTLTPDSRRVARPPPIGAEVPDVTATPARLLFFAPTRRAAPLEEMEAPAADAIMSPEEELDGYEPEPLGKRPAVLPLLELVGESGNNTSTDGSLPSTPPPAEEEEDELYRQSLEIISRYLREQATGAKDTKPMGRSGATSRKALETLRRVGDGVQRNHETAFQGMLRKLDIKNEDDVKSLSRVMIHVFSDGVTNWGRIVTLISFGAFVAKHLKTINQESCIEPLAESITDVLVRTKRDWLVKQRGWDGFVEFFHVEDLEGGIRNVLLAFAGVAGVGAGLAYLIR
# [8] = target: T6, Tyrosine-protein phosphatase non-receptor type 7 (Homo sapiens, UniProt P35236); experiment: redox-dependent HePTP inhibition, mechanism study, biochemical, fluorescence (AID 2068); format: functional
# T6 sequence (P35236 whole entry): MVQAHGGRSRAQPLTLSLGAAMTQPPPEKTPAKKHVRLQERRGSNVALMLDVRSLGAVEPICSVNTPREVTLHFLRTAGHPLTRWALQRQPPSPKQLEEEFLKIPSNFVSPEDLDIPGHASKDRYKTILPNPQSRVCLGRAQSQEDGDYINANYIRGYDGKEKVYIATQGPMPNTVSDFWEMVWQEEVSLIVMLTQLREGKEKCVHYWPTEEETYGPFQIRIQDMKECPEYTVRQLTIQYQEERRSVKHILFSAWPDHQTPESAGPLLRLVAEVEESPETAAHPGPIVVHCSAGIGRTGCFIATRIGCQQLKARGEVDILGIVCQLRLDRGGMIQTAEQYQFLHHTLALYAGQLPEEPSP
# Protein Tat = target: T7, Protein Tat (Human immunodeficiency virus type 1 group M subtype B (isolate HXB2)(HIV-1), UniProt P04608); format: functional;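 note: tat binding to TAR RNA read out by fluorescence polarization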
# T7 sequence (P04608 whole entry): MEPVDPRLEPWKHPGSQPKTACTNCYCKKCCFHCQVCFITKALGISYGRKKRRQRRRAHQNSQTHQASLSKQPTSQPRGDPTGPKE
# [9] = target: T6, Tyrosine-protein phosphatase non-receptor type 7; format: functional
# [10] = target: Dual specificity protein phosphatase 3 (Homo sapiens, UniProt P51452); experiment: SAR VHR1 Fluorescent Assay for In Vitro dose response studies. [Related pubchem assays (depositor defined):AID1654, AID1661, AID1878, AID1992, AID2004, AID2070, AID2085]; format: functional
# Sequence of Dual specificity protein phosphatase 3 (P51452 whole entry): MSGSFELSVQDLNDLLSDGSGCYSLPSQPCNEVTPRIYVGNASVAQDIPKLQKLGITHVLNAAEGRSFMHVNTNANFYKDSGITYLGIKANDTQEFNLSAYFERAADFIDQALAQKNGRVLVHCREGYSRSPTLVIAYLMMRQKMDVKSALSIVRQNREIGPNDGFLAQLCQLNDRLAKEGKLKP
# [11] = target: T5, Dual specificity protein phosphatase 6
# [12] = target: T8, Replicative DNA helicase DnaB (Mycobacterium tuberculosis, UniProt P9WMR3); experiment: DnaB intein splicing inhibitors, dose response, biochemical, cell-free fluorescence (AID 449749); format: functional
# T8 sequence (P9WMR3 whole entry): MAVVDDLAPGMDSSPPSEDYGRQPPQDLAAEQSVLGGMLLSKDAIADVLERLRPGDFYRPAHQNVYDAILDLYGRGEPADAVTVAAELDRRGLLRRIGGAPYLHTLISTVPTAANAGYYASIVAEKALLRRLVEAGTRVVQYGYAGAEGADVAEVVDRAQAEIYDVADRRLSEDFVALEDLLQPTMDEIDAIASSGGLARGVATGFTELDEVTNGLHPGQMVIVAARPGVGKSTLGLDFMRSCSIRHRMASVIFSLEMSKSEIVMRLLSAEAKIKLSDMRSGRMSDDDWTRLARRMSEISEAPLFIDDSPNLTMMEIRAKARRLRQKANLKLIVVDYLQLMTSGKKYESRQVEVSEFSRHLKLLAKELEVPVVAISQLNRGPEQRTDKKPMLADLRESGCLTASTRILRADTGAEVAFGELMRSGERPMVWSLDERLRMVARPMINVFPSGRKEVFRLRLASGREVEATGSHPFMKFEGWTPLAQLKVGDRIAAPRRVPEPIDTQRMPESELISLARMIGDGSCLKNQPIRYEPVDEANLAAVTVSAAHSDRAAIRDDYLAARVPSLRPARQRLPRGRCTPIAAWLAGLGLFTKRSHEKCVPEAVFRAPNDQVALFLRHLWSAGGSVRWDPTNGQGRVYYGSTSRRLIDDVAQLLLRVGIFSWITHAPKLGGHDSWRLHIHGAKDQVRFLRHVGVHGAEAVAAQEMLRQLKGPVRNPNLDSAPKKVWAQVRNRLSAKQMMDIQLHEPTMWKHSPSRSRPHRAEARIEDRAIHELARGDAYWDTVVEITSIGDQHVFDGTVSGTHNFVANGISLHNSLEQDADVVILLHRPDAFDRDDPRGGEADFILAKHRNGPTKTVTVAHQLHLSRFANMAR
# Keap1/Nrf2 = Keap1/Nrf2 (Homo sapiens, UniProt Q14145); experiment: Keap1-Nrf2 protein-protein interaction inhibitors, dose response, biochemical, fluorescence polarization, cherry-picked samples (AID 588683)
# Protein RecA = target: T9, Protein RecA (Mycobacterium tuberculosis, UniProt P9WHJ3); experiment: Fluorescence Cell-Free Homogeneous Dose Retest to Identify Inhibitors of RecA-Intein Splicing Activity. [Related pubchem assays (depositor defined):AID2097, AID2223, AID489010, AID492950]; format: functional
# T9 sequence (P9WHJ3 whole entry): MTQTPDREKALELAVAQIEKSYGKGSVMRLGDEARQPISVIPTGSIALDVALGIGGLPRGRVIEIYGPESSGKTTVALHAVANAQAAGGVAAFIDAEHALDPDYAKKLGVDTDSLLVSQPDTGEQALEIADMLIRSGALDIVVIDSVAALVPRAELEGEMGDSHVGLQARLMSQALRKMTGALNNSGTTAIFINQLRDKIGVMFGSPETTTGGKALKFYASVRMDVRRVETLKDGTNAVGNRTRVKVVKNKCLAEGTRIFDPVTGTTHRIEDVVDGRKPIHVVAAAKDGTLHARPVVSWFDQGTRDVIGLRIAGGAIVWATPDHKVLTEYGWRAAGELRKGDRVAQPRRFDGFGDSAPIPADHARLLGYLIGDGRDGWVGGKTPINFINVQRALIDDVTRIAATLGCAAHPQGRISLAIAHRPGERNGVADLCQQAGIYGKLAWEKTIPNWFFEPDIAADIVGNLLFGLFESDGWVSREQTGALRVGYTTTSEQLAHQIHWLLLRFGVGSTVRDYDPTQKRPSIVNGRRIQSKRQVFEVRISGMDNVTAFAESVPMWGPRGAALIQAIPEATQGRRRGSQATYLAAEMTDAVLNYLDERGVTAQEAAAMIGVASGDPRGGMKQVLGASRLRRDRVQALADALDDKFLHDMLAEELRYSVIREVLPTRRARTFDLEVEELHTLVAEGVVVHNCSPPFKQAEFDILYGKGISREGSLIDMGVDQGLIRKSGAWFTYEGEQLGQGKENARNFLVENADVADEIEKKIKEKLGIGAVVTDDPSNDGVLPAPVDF
# INS1 = experiment: beta cell apoptosis inhibitors, cytokine rescue, dose response, luminescence, retest (AID 449756); format: functional, cell-based; settings: Rattus norvegicus;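 note: cell death triggered by IL-1 beta plus TNF-alpha plus IFN-gamma mixture; protective hits raise ATP signal compared with cytokine alone wells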
# [13] = Intein inhibitors as potential Tuberculosis drugs, a cytotoxicity screen. [Related pubchem assays (depositor defined):AID2221, AID2223, AID434968, AID435010, AID449749, AID449750, AID489010]; format: functional
# Protein skinhead-1 = target: T10, Protein skinhead-1 (Caenorhabditis elegans, UniProt P34707); format: functional
# T10 sequence (P34707 whole entry): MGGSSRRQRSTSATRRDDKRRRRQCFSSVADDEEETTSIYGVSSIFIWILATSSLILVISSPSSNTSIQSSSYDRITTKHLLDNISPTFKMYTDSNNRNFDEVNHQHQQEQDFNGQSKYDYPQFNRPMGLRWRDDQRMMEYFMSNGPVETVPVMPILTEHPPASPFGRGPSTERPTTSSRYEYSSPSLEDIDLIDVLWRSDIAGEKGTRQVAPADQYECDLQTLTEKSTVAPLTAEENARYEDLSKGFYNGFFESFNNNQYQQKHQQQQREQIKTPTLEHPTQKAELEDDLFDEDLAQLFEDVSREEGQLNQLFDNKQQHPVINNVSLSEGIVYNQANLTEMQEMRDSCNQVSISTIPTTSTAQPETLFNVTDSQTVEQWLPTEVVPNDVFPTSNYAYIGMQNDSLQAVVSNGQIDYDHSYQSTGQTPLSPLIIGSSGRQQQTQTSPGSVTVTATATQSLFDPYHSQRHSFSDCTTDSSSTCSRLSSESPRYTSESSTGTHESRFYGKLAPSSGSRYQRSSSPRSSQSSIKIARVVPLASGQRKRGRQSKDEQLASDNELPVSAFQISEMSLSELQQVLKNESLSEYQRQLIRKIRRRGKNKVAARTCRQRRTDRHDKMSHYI
# [14] = target: G-protein coupled receptor 55 (Homo sapiens, UniProt Q9Y2T6); experiment: GPR55 antagonists, SAR follow-up, counter-screen for GPR35 antagonist project, imaging, image-based (AID 2397); format: functional
# Sequence of G-protein coupled receptor 55 (Q9Y2T6 whole entry): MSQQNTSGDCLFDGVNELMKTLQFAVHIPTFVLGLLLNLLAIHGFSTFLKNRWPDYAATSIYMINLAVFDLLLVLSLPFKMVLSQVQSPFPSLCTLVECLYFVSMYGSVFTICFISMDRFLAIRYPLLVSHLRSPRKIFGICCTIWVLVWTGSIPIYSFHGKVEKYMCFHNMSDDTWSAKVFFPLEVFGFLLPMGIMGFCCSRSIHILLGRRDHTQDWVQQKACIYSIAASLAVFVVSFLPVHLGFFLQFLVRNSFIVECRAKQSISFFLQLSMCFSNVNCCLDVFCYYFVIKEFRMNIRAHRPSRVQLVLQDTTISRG
# Cytochrome P450 2C9 = Cytochrome P450 2C9 (Homo sapiens, UniProt P11712)
# Sequence of Cytochrome P450 2C9 (P11712 whole entry): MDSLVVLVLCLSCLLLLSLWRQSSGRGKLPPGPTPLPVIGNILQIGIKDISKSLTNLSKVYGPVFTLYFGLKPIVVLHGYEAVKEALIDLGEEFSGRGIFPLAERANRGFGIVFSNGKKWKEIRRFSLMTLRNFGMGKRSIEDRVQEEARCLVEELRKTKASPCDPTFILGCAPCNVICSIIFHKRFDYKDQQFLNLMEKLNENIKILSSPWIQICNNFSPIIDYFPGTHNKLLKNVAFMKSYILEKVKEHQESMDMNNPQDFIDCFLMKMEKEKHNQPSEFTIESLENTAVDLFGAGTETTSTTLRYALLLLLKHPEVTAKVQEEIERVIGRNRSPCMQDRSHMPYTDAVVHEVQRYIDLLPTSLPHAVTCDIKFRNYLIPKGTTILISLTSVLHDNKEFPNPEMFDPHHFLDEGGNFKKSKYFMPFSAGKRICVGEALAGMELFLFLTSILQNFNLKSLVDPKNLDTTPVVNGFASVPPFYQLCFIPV
# Cytochrome P450 2D6 [15] = target: T1, Cytochrome P450 2D6; remark: listed apart in the source
# Cytochrome P450 3A4 [16] = target: T2, Cytochrome P450 3A4; remark: listed apart in the source
# 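Throughout, for CC50: cells exposed to compound for 72 hours before luminescence readout.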
# Sequence of UDP-galactopyranose mutase (P9WIQ1 whole entry): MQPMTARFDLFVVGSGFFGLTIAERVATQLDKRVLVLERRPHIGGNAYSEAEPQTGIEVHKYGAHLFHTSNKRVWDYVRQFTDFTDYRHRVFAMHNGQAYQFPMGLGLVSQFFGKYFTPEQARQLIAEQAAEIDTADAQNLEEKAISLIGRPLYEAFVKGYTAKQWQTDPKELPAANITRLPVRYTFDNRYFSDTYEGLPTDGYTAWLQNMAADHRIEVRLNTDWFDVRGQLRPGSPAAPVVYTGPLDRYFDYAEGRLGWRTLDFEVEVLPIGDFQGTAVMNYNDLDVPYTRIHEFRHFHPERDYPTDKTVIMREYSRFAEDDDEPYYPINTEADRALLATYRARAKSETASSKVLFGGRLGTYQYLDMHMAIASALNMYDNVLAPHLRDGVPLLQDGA
smiles,measurement,setting,value
COCCNC(=O)Cn1cc(C=C2C(=O)NC(=O)NC2=O)c2ccccc21,AC50,[1],46.3 µM (active)
CC(C)(C)c1ccc(-c2nnc(SCC(=O)c3ccc4c(c3)OCCO4)o2)cc1,AC50,Cytochrome P450 2D6 [2],inconclusive
same,AC50,Cytochrome P450 2C19,3.98 µM (inconclusive)
same,AC50,Cytochrome P450 3A4 [3],39.8 µM (inconclusive)
same,AC50,Cytochrome P450 1A2,2.24 µM (inconclusive)
c1ccc(CSc2nnc(-c3ccco3)c(-c3ccco3)n2)cc1,IC50,Bcl-2-like protein 1,> 109 µM (not active)
same,IC50,Bcl-2-like protein 10,5.55 µM (active)
same,IC50,[4],24.2 µM (active)
same,IC50,[5],> 10 µM (not active)
same,IC50,[6],> 100 µM (not active)
same,IC50,[7],2.92 µM (active)
same,IC50,[8],0.284 µM (active)
same,IC50,Protein Tat,4.04 µM (inconclusive)
same,IC50,[9],13.3 µM (active)
same,IC50,[10],7.06 µM (active)
same,IC50,[11],23.9 µM (active)
Cc1ccc(S(=O)(=O)Nc2ccc(O)c3ccccc23)c(C)c1,AC50,[12],0.132 µM (active)
same,AC50,Keap1/Nrf2,> 52 µM (inactive)
same,EC50,Protein RecA,0.0702 µM (active)
same,AC50,INS1,5.61 µM (active)
O=C(CCCN1C(=O)/C(=C/c2cccs2)SC1=S)Nc1ccc(O)cc1,CC50,[13],28.5 µM (active)
same,AC50,[12],2.11 µM (active)
same,IC50,Protein skinhead-1,> 100 µM (inactive)
same,EC50,Protein RecA,3.25 µM (active)
same,IC50,[14],30.5 µM (inactive)
COC(=O)C1Cc2c([nH]c3ccccc23)CN1 (stereo not drawn),AC50,Cytochrome P450 2C9,25.1 µM (inconclusive)
same,AC50,Cytochrome P450 2D6 [15],14.1 µM (inconclusive)
same,AC50,Cytochrome P450 3A4 [16],inconclusive
